Measurements taken from US20110172097A1, “Imidazole and Triazole Compounds, Their Use and Agents Containing The Same” (BASF SE, priority 2008, published 2011).

Key:
[1] = system: Phakopsora pachyrhizi; assay: Example G1 - Curative activity against soybean rust caused by Phakopsora pachyrhizi (greenhouse); format: in vivo, Phakopsora pachyrhizi on soybean seedlings; conditions: 300 ppm, curative spray 24 h after inoculation, assessed after 14 days, untreated plants 90% infected
[2] = system: Pyricularia oryzae; format: cell-based; conditions: day 7, 405 nm, active compound-free control = 100%
[3] = system: Septoria tritici; assay: CG1 - Protective activity against Septoria leaf spot of wheat caused by Septoria tritici (greenhouse); format: in vivo, Septoria tritici on wheat seedlings; conditions: protective spray 24 h before inoculation, assessed after 21 days, % infection of total leaf area, untreated control 90
Experimental: Subsequently, it was made up to 100 ml with water. This stock solution was diluted with the described solvent/emulsifier/water mixture to the active compound concentration indicated below. Alternatively, the active compounds were used as a commercially available ready-to-use solution and diluted with water to the active compound concentration indicated. CG1 Protective Activity Against Septoria Leaf Spot of Wheat Caused by Septoria tritici Leaves of potted wheat seedlings were sprayed to run off point with an aqueous suspension having the active compound concentration stated below. 24 hours after the spray coating had dried on, they were inoculated with an aqueous spore suspension of Septoria tritici. The test plants were then placed in a greenhouse at temperatures between 18 and 22° C. and a relative atmospheric humidity close to 100% for 4 days and then at temperatures between 18 and 22° C. and an atmospheric humidity of about 70%. After 21 days, the extent of the development of the disease was determined visually in % infection of the total leaf area.

SMILES	Growth (%) at 31 ppm CM1 [2] [%]	Infection (%) at 600 ppm CG1 [3] [%]	further results
CC(C)(CCCC(C(O)C(C)(C)C)n1cncn1)c1ccccc1 (centres unmarked) [I.A1b, 2,2,8-trimethyl-8-phenyl-4-[1,2,4]triazol-1-ylnonan-3-ol]	–	–	extent of the rust fungus development on the leaves in % infection [1]: 0%
CC(C)(C)C(O)C(CCCCc1ccccc1)n1cncn1 (centres unmarked) [reference compound]	61	–	–
CC(C)(CCCC(C(O)C(C)(C)C)n1cncn1)c1ccccc1 (centres unmarked) [I.A1a, 2,2,8-trimethyl-8-phenyl-4-[1,2,4]triazol-1-ylnonan-3-ol]	26	–	–
CC(C)(C)C(O)C(CCCCc1ccc(F)cc1)n1cncn1 (centres unmarked) [I.A5a, 8-(4-fluorophenyl)-2,2-dimethyl-4-[1,2,4]triazol-1-yloctan-3-ol]	–	10	–
CC(C)(C)C(O)C(CCCCc1ccc(Cl)cc1)n1cncn1 (centres unmarked) [reference compound]	–	40	–
